Where “and” joins values, the source holds several entries; their conditions need not be identical. Identical values can stand only once. Toxic doses and inconclusive results are not listed. No stated cut-off is given here; in the data, active means T/C of 150% or more; inactive means T/C below 125%.
Tested on: L1210 leukemia ip in BDF1 mice, survival T/C
Experiment: NCI In Vivo Anticancer Drug Screen. Data for tumor model L1210 Leukemia (intraperitoneal) in B6D2F1 (BDF1) mice
Details: endpoint: mean survival time, higher = longer survival
Method in brief: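 Mice bearing the transplanted tumor received compound or vehicle. Survival of the treated group was divided by that of the vehicle-treated control group to give the ratio.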

[1] = dose: 100.0 mg/kg/injection, schedule: Q01DX001 (ip), vehicle: saline with Tween-80
[2] = dose: 100.0 mg/kg/injection, schedule: Q04DX003 (ip), vehicle: saline with Tween-80
[3] = dose: 200.0 mg/kg/injection, schedule: Q01DX001 (ip), vehicle: saline with Tween-80
[4] = dose: 200.0 mg/kg/injection, schedule: Q04DX003 (ip), vehicle: saline with Tween-80
[5] = dose: 400.0 mg/kg/injection, schedule: Q01DX001 (ip), vehicle: saline with Tween-80
[6] = dose: 400.0 mg/kg/injection, schedule: Q04DX003 (ip), vehicle: saline with Tween-80
[7] = dose: 100.0 mg/kg/injection, schedule: Q01DX001 (ip), vehicle: saline
[8] = dose: 200.0 mg/kg/injection, schedule: Q01DX001 (ip), vehicle: saline
[9] = dose: 400.0 mg/kg/injection, schedule: Q01DX001 (ip), vehicle: saline
[10] = dose: 100.0 mg/kg/injection, schedule: Q01DX001 (ip), vehicle: carboxymethylcellulose (CMC)
[11] = dose: 200.0 mg/kg/injection, schedule: Q01DX001 (ip), vehicle: carboxymethylcellulose (CMC)
[12] = dose: 400.0 mg/kg/injection, schedule: Q01DX001 (ip), vehicle: carboxymethylcellulose (CMC)
[13] = dose: 100.0 mg/kg/injection, schedule: Q04DX003 (ip), vehicle: Klucel (hydroxypropylcellulose) (HPC)
[14] = dose: 200.0 mg/kg/injection, schedule: Q04DX003 (ip), vehicle: Klucel (hydroxypropylcellulose) (HPC)
[15] = dose: 400.0 mg/kg/injection, schedule: Q04DX003 (ip), vehicle: Klucel (hydroxypropylcellulose) (HPC)
[16] = dose: 100.0 mg/kg/injection, schedule: Q04DX003 (ip), vehicle: saline
[17] = dose: 200.0 mg/kg/injection, schedule: Q04DX003 (ip), vehicle: saline
[18] = dose: 400.0 mg/kg/injection, schedule: Q04DX003 (ip), vehicle: saline
[19] = dose: 100.0 mg/kg/injection, schedule: Q04DX002 (ip), vehicle: saline
[20] = dose: 100.0 mg/kg/injection, schedule: Q04DX002 (ip), vehicle: saline with Tween-80
[21] = dose: 200.0 mg/kg/injection, schedule: Q04DX002 (ip), vehicle: saline with Tween-80
[22] = dose: 400.0 mg/kg/injection, schedule: Q04DX002 (ip), vehicle: saline with Tween-80
[23] = dose: 100.0 mg/kg/injection, schedule: Q01DX009 (ip), vehicle: Klucel (hydroxypropylcellulose) (HPC)
[24] = dose: 200.0 mg/kg/injection, schedule: Q01DX009 (ip), vehicle: Klucel (hydroxypropylcellulose) (HPC)
[25] = dose: 200.0 mg/kg/injection, schedule: Q04DX002 (ip), vehicle: Klucel (hydroxypropylcellulose) (HPC)
[26] = dose: 400.0 mg/kg/injection, schedule: Q04DX002 (ip), vehicle: Klucel (hydroxypropylcellulose) (HPC)

Measured: T/C

c1ccc(CCNc2ccnc3ccccc23)cc1
inactive: dose: 12.5 mg/kg/injection, schedule: Q01DX009 (ip), vehicle: Klucel (hydroxypropylcellulose) (HPC) 103 % of control | dose: 12.5 mg/kg/injection, schedule: Q04DX003 (ip), vehicle: Klucel (hydroxypropylcellulose) (HPC) 104 % of control | dose: 25.0 mg/kg/injection, schedule: Q01DX009 (ip), vehicle: Klucel (hydroxypropylcellulose) (HPC) 101 % of control | dose: 25.0 mg/kg/injection, schedule: Q04DX003 (ip), vehicle: Klucel (hydroxypropylcellulose) (HPC) 97 % of control | dose: 50.0 mg/kg/injection, schedule: Q04DX003 (ip), vehicle: Klucel (hydroxypropylcellulose) (HPC) 95 % of control

S=c1cc[nH]c2n[nH]nc12
inactive: [1] 101 % of control | [2] 104 % of control | [3] 101 % of control | [4] 101 % of control | [5] 103 % of control | [6] 98 % of control

CC(=O)Nc1c(I)cc(I)c(C(=O)O)c1I
inactive: dose: 100.0 mg/kg/injection, schedule: Q04DX003 (ip), vehicle: saline sonified 98 % of control | dose: 200.0 mg/kg/injection, schedule: Q04DX003 (ip), vehicle: saline sonified 101 % of control | dose: 400.0 mg/kg/injection, schedule: Q04DX003 (ip), vehicle: saline sonified 103 % of control

COC(OC)C(Br)(Br)Br
inactive: [7] 96 % of control | [8] 106 % of control | [9] 100 % of control

COC(=O)c1cccc(-c2cccc(C(=O)OC)c2)c1
inactive: [10] 96 % of control | [11] 96 % of control | [12] 100 % of control

O=C(C(=O)c1ccc([N+](=O)[O-])cc1)c1ccccc1
inactive: [13] 97 % of control | [14] 100 % of control | [15] 94 % of control

[Br][Sn]([Br])([c]1cccc2ccccc12)[c]1cccc2ccccc12
inactive: [1] 102 % of control | [3] 93 % of control | [5] 93 % of control

COc1ccc2nc(-c3ccc(C)cc3)cc(C(=O)O)c2c1
inactive: [7] 92 % of control | [16] 96 % of control | [8] 106 % of control | [17] 94 % of control | [9] 88 % of control | [18] 97 % of control

CCOC(=O)/C(C#N)=C/c1cccn1Cc1cc(OC)cc(OC)c1
inactive: dose: 25.0 mg/kg/injection, schedule: Q04DX002 (ip), vehicle: saline 111 % of control | dose: 50.0 mg/kg/injection, schedule: Q04DX002 (ip), vehicle: saline 101 % of control | [19] 94 % of control

CNC(=O)Oc1ccc(-c2ccccc2)cc1Cl
inactive: dose: 25.0 mg/kg/injection, schedule: Q01DX009 (ip), vehicle: saline with Tween-80 103 % of control and 106 % of control | dose: 50.0 mg/kg/injection, schedule: Q01DX009 (ip), vehicle: saline with Tween-80 94 % of control and 111 % of control | [1] 101 % of control | [20] 93 % of control and 101 % of control (2×) | [2] 98 % of control | [3] 93 % of control | dose: 200.0 mg/kg/injection, schedule: Q01DX009 (ip), vehicle: saline with Tween-80 94 % of control | [21] 96 % of control and 97 % of control and 100 % of control | [4] 95 % of control | [5] 104 % of control | [22] 103 % of control and 107 % of control and 113 % of control | [6] 98 % of control

CN(C)Cc1ccccc1C(=O)C(c1ccccc1)c1ccccc1
inactive: dose: 55.0 mg/kg/injection, schedule: Q01DX Z (ip), vehicle: methylcellulose (MC) 100 % of control | dose: 83.0 mg/kg/injection, schedule: Q01DX Z (ip), vehicle: methylcellulose (MC) 94 % of control

O=C(/C=C/c1ccccc1)N/N=C/c1ccncc1
inactive: [19] 91 % of control | dose: 200.0 mg/kg/injection, schedule: Q04DX002 (ip), vehicle: saline 108 % of control | dose: 400.0 mg/kg/injection, schedule: Q04DX002 (ip), vehicle: saline 112 % of control

CCC(O)Cc1c[nH]c(=O)[nH]c1=O (stereo not given)
inactive: dose: 50.0 mg/kg/injection, schedule: Q01DX009 (ip), vehicle: saline 93 % of control | dose: 100.0 mg/kg/injection, schedule: Q01DX009 (ip), vehicle: saline 98 % of control | [2] 94 % of control | [4] 94 % of control

O=C1CSc2ccccc2N1CCN1C(=O)CSc2ccccc21
inactive: dose: 50.0 mg/kg/injection, schedule: Q04DX002 (ip), vehicle: saline with Tween-80 93 % of control | [20] 90 % of control | [21] 101 % of control | [22] 86 % of control

CC(C)(CC(=O)O)SCCSC(C)(C)CC(=O)O
inactive: [23] 97 % of control | [24] 95 % of control | dose: 400.0 mg/kg/injection, schedule: Q01DX009 (ip), vehicle: Klucel (hydroxypropylcellulose) (HPC) 92 % of control

CCOC(=O)C(Cl)CCl (stereo not given)
inactive: dose: 50.0 mg/kg/injection, schedule: Q01DX009 (ip), vehicle: Klucel (hydroxypropylcellulose) (HPC) 97 % of control | [23] 100 % of control | [13] 108 % of control | [24] 104 % of control | [14] 97 % of control

NNC(=O)C(Sc1ccccc1)c1ccccc1 (stereo not given)
inactive: [13] 95 % of control | [14] 98 % of control | [15] 101 % of control

O=[N+]([O-])c1ccc(Cn2cnc3c(Cl)ncnc32)cc1
inactive: dose: 100.0 mg/kg/injection, schedule: Q01DX001 (ip), vehicle: other 90 % of control

CC1=CC(=O)OC(C)(C)C1
inactive: [16] 97 % of control | [17] 96 % of control | [18] 99 % of control

O=C(O)CO/N=C/c1ccccc1Cl
inactive: [25] 98 % of control | [26] 95 % of control

c1cc(N=NNc2cccc(C3=NCCN3)c2)cc(C2=NCCN2)c1
inactive: dose: 7.75 mg/kg/injection, schedule: Q01DX015 (ip), vehicle: water 100 % of control | dose: 15.5 mg/kg/injection, schedule: Q01DX015 (ip), vehicle: water 94 % of control | dose: 31.0 mg/kg/injection, schedule: Q01DX015 (ip), vehicle: water 100 % of control | dose: 62.0 mg/kg/injection, schedule: Q01DX015 (ip), vehicle: water 98 % of control

CN(C(=S)c1ccc(Cl)cc1)c1ccccc1
inactive: dose: 100.0 mg/kg/injection, schedule: Q01DX001 (ip), vehicle: Klucel (hydroxypropylcellulose) (HPC) 103 % of control | [13] 92 % of control | dose: 200.0 mg/kg/injection, schedule: Q01DX001 (ip), vehicle: Klucel (hydroxypropylcellulose) (HPC) 98 % of control | [14] 102 % of control | dose: 400.0 mg/kg/injection, schedule: Q01DX001 (ip), vehicle: Klucel (hydroxypropylcellulose) (HPC) 103 % of control | [15] 97 % of control

CCOP(=S)(N1CC1)N1CC1
inactive: [10] 95 % of control | [11] 95 % of control | [12] 94 % of control

O=S1c2ccccc2Oc2ccccc21
inactive: dose: 100.0 mg/kg/injection, schedule: Q04DX002 (ip), vehicle: Klucel (hydroxypropylcellulose) (HPC) 108 % of control | [25] 108 % of control | [26] 108 % of control

O=c1ccn(Cc2ccccc2)cn1
inactive: [16] 106 % of control | [17] 104 % of control | [18] 98 % of control

C/C(=C\C(=O)O)Cc1ccccc1 (tested in a mixture with another compound)
inactive: dose: 50.0 mg/kg/injection, schedule: Q04DX003 (ip), vehicle: other 106 % of control | dose: 100.0 mg/kg/injection, schedule: Q04DX003 (ip), vehicle: other 115 % of control | dose: 200.0 mg/kg/injection, schedule: Q04DX003 (ip), vehicle: other 114 % of control | dose: 400.0 mg/kg/injection, schedule: Q04DX003 (ip), vehicle: other 103 % of control
